Reference: ChEMBL document CHEMBL3217506, “Amidines bearing benzofuroxan or benzimidazole 1,3-dioxide core scaffolds as Trypanosoma cruzi-inhibitors: structural basis for their interactions with cruzipain” (Medchemcomm, 2012)

How the values were obtained:
[1] = biological target: Cruzipain (Trypanosoma cruzi) (UniProt P25779); assay: Inhibition of Trypanosoma cruzi cruzipain using Z-Phe-Arg-AMC as substrate at 100 uM at pH 5.3 after 10 mins by spectrofluorimetry relative to untreated control
[2] = Cytotoxicity against human RBC assessed as hemolytic activity after 24 hrs by spectrophotometry; type: cell-based, Erythrocyte; details: human red blood cells (RBC), read-out: ID50
[3] = biological target: Cruzipain (Trypanosoma cruzi) (UniProt P25779); assay: Inhibition of Trypanosoma cruzi cruzipain using Z-Phe-Arg-AMC as substrate at 100 uM at pH 7.4 after 10 mins by spectrofluorimetry relative to untreated control
[4] = biological target: Cruzipain (Trypanosoma cruzi) (UniProt P25779); assay: Inhibition of Trypanosoma cruzi cruzipain using Z-Phe-Arg-AMC as substrate at pH 7.4 after 10 mins by spectrofluorimetry relative to untreated control
[5] = test system: Trypanosoma cruzi; assay: Antitrypanosomal activity against epimastigote stage of Trypanosoma cruzi Tulahuen 2 after 5 days relative to untreated control; type: functional; details: Tulahuen 2, 120 h, read-out: ID50 (the source's name)
[6] = Selectivity index, ratio of ID50 for human RBC to ID50 for epimastigote stage of Trypanosoma cruzi Tulahuen 2
[7] = biological target: Cruzipain (Trypanosoma cruzi) (UniProt P25779); assay: Inhibition of Trypanosoma cruzi cruzipain using Z-Phe-Arg-AMC as substrate at 100 uM at pH 5.3 after 10 mins by spectrofluorimetry in presence of Triton X-100 relative to untreated control

Cruzipain (Trypanosoma cruzi), sequence (P25779 123-467 limits assumed): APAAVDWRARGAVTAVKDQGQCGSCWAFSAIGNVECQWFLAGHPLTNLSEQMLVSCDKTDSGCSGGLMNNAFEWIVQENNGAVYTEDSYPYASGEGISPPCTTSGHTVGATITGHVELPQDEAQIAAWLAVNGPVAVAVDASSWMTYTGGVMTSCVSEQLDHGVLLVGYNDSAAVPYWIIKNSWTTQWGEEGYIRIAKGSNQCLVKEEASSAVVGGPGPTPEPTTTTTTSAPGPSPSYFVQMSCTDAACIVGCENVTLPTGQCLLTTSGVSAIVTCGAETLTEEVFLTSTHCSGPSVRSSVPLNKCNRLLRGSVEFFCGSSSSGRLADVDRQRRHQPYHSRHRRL

Compound | inhibition [1] [%] | inhibition [3] [%] | ID50 [4] [µM] | IC50 [5] [µM] | inhibition [7] [%] | HC50 at 24 h [2] [µM] | Selectivity Index [6]
c1ccc(/N=C(/Nc2ccccc2)N2CCNCC2)cc1 | 6.3 | – | – | – | – | – | –
CC1(C)[N+]([O-])=c2ccc(CN3CCN(/C(=N/c4ccccc4)NCc4ccco4)CC3)cc2=[N+]1[O-] | – | 15 | – | – | – | > 200 | –
c1ccc(C/N=C(/Nc2ccccc2)N2CCNCC2)cc1 | 5.4 | – | – | – | – | – | –
[O-][n+]1onc2ccc(CN3CCN(/C(=N/c4ccccc4)NCc4ccccc4)CC3)cc21 | 11 | 29 | – | – | – | 83 | –
N=C(N)N/N=C/c1ccc(OCc2ccc3no[n+]([O-])c3c2)cc1 | – | – | 32 | > 25 | – | – | –
[O-][n+]1onc2ccc(CN3CCN(/C(=N/c4ccccc4)NCc4ccco4)CC3)cc21 | 44 | 0.3 | 100 | 15 | 45 | > 200 | > 13
O=C(Cn1ccnc1[N+](=O)[O-])NCc1ccccc1 [BENZNIDAZOLE] | – | – | – | 7.4 | – | – | –
CC1CS(=O)(=O)CCN1/N=C/c1ccc([N+](=O)[O-])o1 (stereo unspecified) [NIFURTIMOX] | – | – | – | 7.7 | – | > 100 | > 13
[O-][n+]1onc2ccc(CN3CCN(/C(=N/c4ccccc4)NCCc4ccccc4)CC3)cc21 | 34 | 25 | > 100 | 1.2 | – | 37 | 31
C[C@@H]1[C@H](O)[C@@H](C)/C=C/C=C/C=C/C=C/C=C/C=C/C=C/[C@H](O[C@@H]2O[C@H](C)[C@@H](O)[C@H](N)[C@@H]2O)C[C@@H]2O[C@](O)(C[C@@H](O)C[C@@H](O)[C@H](O)CC[C@@H](O)C[C@@H](O)CC(=O)O[C@H]1C)C[C@H](O)[C@H]2C(=O)O | – | – | – | – | – | – | 10
O=S(=O)(/C=C/c1ccc2no[n+]([O-])c2c1)c1ccccc1 | – | – | > 50 | 1.6 | – | – | –

Continued, in another order:

inhibition [1] [%] | inhibition [3] [%] | ID50 [4] [µM] | IC50 [5] [µM] | inhibition [7] [%] | Compound | HC50 at 24 h [2] [µM] | Selectivity Index [6]
10 | – | – | – | – | c1ccc(N/C(=N/Cc2ccco2)N2CCNCC2)cc1 | – | –
3.2 | – | – | – | – | c1ccc(CC/N=C(/Nc2ccccc2)N2CCNCC2)cc1 | – | –
– | 34 | – | – | – | CC1(C)[N+]([O-])=c2ccc(CN3CCN(/C(=N/c4ccccc4)NCc4ccccc4)CC3)cc2=[N+]1[O-] | > 36 | –
– | 30 | – | 1 | – | CC1(C)[N+]([O-])=c2ccc(CN3CCN(/C(=N/c4ccccc4)NCCc4ccccc4)CC3)cc2=[N+]1[O-] | > 50 | > 50
47 | 12 | 100 | 5.8 | – | [O-][n+]1onc2ccc(CN3CCN(/C(=N/c4ccccc4)Nc4ccccc4)CC3)cc21 | 105 | 18
– | – | 64.5 | 6.8 | – | N=C(N/N=C/c1ccc(O)cc1)SCc1ccc2no[n+]([O-])c2c1 | – | –
– | – | 0.1 | – | – | CC/C(=N\N=C(\N)S)c1cccc(Br)c1 | – | –
